Measured values as given in patent US7645752B2, “Sulfonyl substituted 1H-indoles as ligands for the 5-hydroxytryptamine receptors” (Wyeth LLC, priority 2006, dated 2010).
Where two headings read alike, the source gives them in different places.

Molecular target: T1, human cloned 5-HT6 receptors (Homo sapiens, UniProt P50406)
T1 construct: expressed in transfected cells; host or cells: HeLa cells
Test: 5-HT6 binding affinity, [3H]-LSD displacement on membranes of Hela cells
Details: for inhibition at 1 µM: read-out: % inhibition at 1 micromole
Protocol: The affinity of test compounds for the 5-HT6 receptor is evaluated in the following manner. Cultured Hela cells expressing human cloned 5-HT6 receptors are harvested and centrifuged at low speed (1,000×g) for 10.0 min to remove the culture media. The harvested cells are suspended in half volume of fresh physiological phosphate buffered saline solution and recentrifuged at the same speed. This operation is repeated. The collected cells are then homogenized in ten volumes of 50 mM Tris.HCl (pH 7.4) and 0.5 mM EDTA. The homogenate is centrifuged at 40,000×g for 30.0 min and the precipitate is collected. The obtained pellet is resuspended in 10 volumes of Tris.HCl buffer and recentrifuged at the same speed. The final pellet is suspended in a small volume of Tris.HCl buffer and the tissue protein content is determined in aliquots of 10-25 microliter volumes. […] The volume of the suspended cell membranes is adjusted to give a tissue protein concentration of 1.0 mg/mL of suspension. The prepared membrane suspension (10 times concentrated) is aliquoted in 1.0 mL volumes and stored at −70° C. until used in subsequent binding experiments.
Binding experiments are performed in a 96 well microtiter plate format in a total volume of 200 microliters. […] The test compounds are added in 20.0 microliter volume.
The bound complex caught on the filter disk is allowed to air dry and the radioactivity is measured in a Packard TopCount® equipped with six photomultiplier detectors, after the addition of 40.0 microliter Microscint®-20 scintillant to each shallow well.
Binding in the presence of varying concentrations of test compound is expressed as a percentage of specific binding in the absence of test compound. The results are plotted as log % bound versus log concentration of the test compound.

[1] = Table 1, [3H]-LSD 3.0 nM, Hela cell membranes, read-out: Ki (nM) @ 5-HT6 receptor
[2] = Table 1, 5-HT6 binding, at 1 micromole

T1 sequence (P50406 whole entry): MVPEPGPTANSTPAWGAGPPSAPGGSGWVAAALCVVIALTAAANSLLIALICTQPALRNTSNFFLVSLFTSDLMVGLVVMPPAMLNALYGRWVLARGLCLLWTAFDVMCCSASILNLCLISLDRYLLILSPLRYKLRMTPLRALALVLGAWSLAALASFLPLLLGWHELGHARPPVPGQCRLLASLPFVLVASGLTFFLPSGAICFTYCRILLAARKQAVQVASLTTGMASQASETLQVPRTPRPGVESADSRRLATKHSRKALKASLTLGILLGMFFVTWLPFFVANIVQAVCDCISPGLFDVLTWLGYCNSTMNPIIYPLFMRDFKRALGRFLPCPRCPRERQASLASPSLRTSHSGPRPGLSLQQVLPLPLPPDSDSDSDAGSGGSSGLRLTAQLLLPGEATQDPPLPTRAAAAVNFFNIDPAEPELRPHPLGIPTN

Structure (SMILES): CN(C)CCc1ccc2[nH]cc(S(=O)(=O)c3ccccc3)c2c1 [Example 1, N,N-dimethyl-N-{2-[3-(phenylsulfonyl)-1H-indol-5-yl]ethyl}amine]
- Ki [1]: 9 nM

Structure (SMILES): CCCNCCc1ccc2[nH]cc(S(=O)(=O)c3ccccc3)c2c1 [Example 2, N-{2-[3-(phenylsulfonyl)-1H-indol-5-yl]ethyl}-N-propylamine]
- Ki: 34.7 nM

Structure (SMILES): CC(C)NCCc1ccc2[nH]cc(S(=O)(=O)c3ccccc3)c2c1 [Example 3, N-{2-[3-(phenylsulfonyl)-1H-indol-5-yl]ethyl}propan-2-amine]
- Ki: 56.7 nM

Structure (SMILES): O=S(=O)(c1ccccc1)c1c[nH]c2ccc(CCNC3CC3)cc12 [Example 4, N-{2-[3-(phenylsulfonyl)-1H-indol-5-yl]ethyl}cyclopropanamine]
- Ki [1]: 15 nM

Structure (SMILES): O=S(=O)(c1ccccc1)c1c[nH]c2ccc(CCNC3CCCC3)cc12 [Example 5, N-{2-[3-(phenylsulfonyl)-1H-indol-5-yl]ethyl}cyclopentanamine]
- Ki [1]: 37 nM

Structure (SMILES): O=S(=O)(c1ccccc1)c1c[nH]c2ccc(CCNCc3ccccc3)cc12 [Example 6, N-benzyl-N-{2-[3-(phenylsulfonyl)-1H-indol-5-yl]ethyl}amine]
- Ki [1]: 24 nM

Structure (SMILES): CCN(C)CCc1ccc2[nH]cc(S(=O)(=O)c3ccccc3)c2c1 [Example 7, N-ethyl-N-methyl-N-{2-[3-(phenylsulfonyl)-1H-indol-5-yl]ethyl}amine]
- Ki [1]: 7 nM

Structure (SMILES): CCN(CC)CCc1ccc2[nH]cc(S(=O)(=O)c3ccccc3)c2c1 [Example 8, N,N-diethyl-N-{2-[3-(phenylsulfonyl)-1H-indol-5-yl]ethyl}amine]
- Ki [1]: 17 nM

Structure (SMILES): O=S(=O)(c1ccccc1)c1c[nH]c2ccc(CCN3CCCC3)cc12 [Example 9, 3-(phenylsulfonyl)-5-(2-pyrrolidin-1-ylethyl)-1H-indole]
- Ki [1]: 28 nM

Structure (SMILES): O=S(=O)(c1ccccc1)c1c[nH]c2ccc(CCN3CCCCC3)cc12 [Example 10, 3-(phenylsulfonyl)-5-(2-piperidin-1-ylethyl)-1H-indole]
- Ki [1]: 10.3 nM

Structure (SMILES): O=S(=O)(c1ccccc1)c1c[nH]c2ccc(CCN3CCOCC3)cc12 [Example 11, 5-(2-morpholin-4-ylethyl)-3-(phenylsulfonyl)-1H-indole]
- Ki [1]: 39 nM

Structure (SMILES): NCCc1ccc2[nH]cc(S(=O)(=O)c3ccccc3)c2c1 [Example 12, {2-[3-(phenylsulfonyl)-1H-indol-5-yl]ethyl}amine]
- Ki: 7 nM

Structure (SMILES): O=S(=O)(c1ccccc1)c1c[nH]c2ccc(CCN3CCNCC3)cc12 [Example 13, 3-(phenylsulfonyl)-5-(2-piperazin-1-ylethyl)-1H-indole]
- Ki [1]: 68 nM

Structure (SMILES): CN(C)CCc1cccc2c(S(=O)(=O)c3ccccc3)c[nH]c12 [Example 18, N,N-dimethyl-N-{2-[3-(phenylsulfonyl)-1H-indol-7-yl]ethyl}amine]
- Ki [1]: 2.3 nM

Structure (SMILES): CNCCc1cccc2c(S(=O)(=O)c3ccccc3)c[nH]c12 [Example 19, N-methyl-N-{2-[3-(phenylsulfonyl)-1H-indol-7-yl]ethyl}amine]
- Ki [1]: 2.3 nM

Structure (SMILES): CCCNCCc1cccc2c(S(=O)(=O)c3ccccc3)c[nH]c12 [Example 20, N-{2-[3-(phenylsulfonyl)-1H-indol-7-yl]ethyl}-N-propylamine]
- Ki [1]: 9.1 nM

Structure (SMILES): CC(C)NCCc1cccc2c(S(=O)(=O)c3ccccc3)c[nH]c12 [Example 21, N-{2-[3-(phenylsulfonyl)-1H-indol-7-yl]ethyl}propan-2-amine]
- Ki [1]: 9.4 nM

Structure (SMILES): O=S(=O)(c1ccccc1)c1c[nH]c2c(CCNC3CC3)cccc12 [Example 22, N-{2-[3-(phenylsulfonyl)-1H-indol-7-yl]ethyl}cyclopropanamine]
- Ki: 5.5 nM

Structure (SMILES): O=S(=O)(c1ccccc1)c1c[nH]c2c(CCNC3CCCC3)cccc12 [Example 23, N-{2-[3-(phenylsulfonyl)-1H-indol-7-yl]ethyl}cyclopentanamine]
- Ki [1]: 18 nM

Structure (SMILES): CCN(C)CCc1cccc2c(S(=O)(=O)c3ccccc3)c[nH]c12 [Example 24, N-ethyl-N-methyl-N-{2-[3-(phenylsulfonyl)-1H-indol-7-yl]ethyl}amine]
- Ki [1]: 11 nM

Structure (SMILES): CCN(CC)CCc1cccc2c(S(=O)(=O)c3ccccc3)c[nH]c12 [Example 25, N,N-diethyl-N-{2-[3-(phenylsulfonyl)-1H-indol-7-yl]ethyl}amine]
- Ki [1]: 21 nM

Structure (SMILES): O=S(=O)(c1ccccc1)c1c[nH]c2c(CCN3CCCC3)cccc12 [Example 26, 3-(phenylsulfonyl)-7-(2-pyrrolidin-1-ylethyl)-1H-indole]
- Ki [1]: 18 nM

Structure (SMILES): O=S(=O)(c1ccccc1)c1c[nH]c2c(CCN3CCCCC3)cccc12 [Example 27, 3-(phenylsulfonyl)-7-(2-piperidin-1-ylethyl)-1H-indole]
- Ki [1]: 13 nM

Structure (SMILES): O=S(=O)(c1ccccc1)c1c[nH]c2c(CCN3CCOCC3)cccc12 [Example 28, 7-(2-morpholin-4-ylethyl)-3-(phenylsulfonyl)-1H-indole]
- Ki [1]: 99 nM

Structure (SMILES): NCCc1cccc2c(S(=O)(=O)c3ccccc3)c[nH]c12 [Example 29, {2-[3-(phenylsulfonyl)-1H-indol-7-yl]ethyl}amine]
- Ki [1]: 1.5 nM

Structure (SMILES): O=S(=O)(c1ccccc1)c1c[nH]c2c(CCN3CCNCC3)cccc12 [Example 30, 3-(phenylsulfonyl)-7-(2-piperazin-1-ylethyl)-1H-indole]
- Ki [1]: 7.5 nM

Structure (SMILES): CN(C)CCc1cccc2[nH]cc(S(=O)(=O)c3cccc(F)c3)c12 [Example 62, N,N-dimethyl-N-{2-[3-(3-fluorophenylsulfonyl)-1H-indol-4-yl]ethyl}amine]
- inhibition at 1 µM: 72%

Structure (SMILES): CNCCc1cccc2[nH]cc(S(=O)(=O)c3cccc(F)c3)c12 [Example 63, N-methyl-N-{2-[3-(3-fluorophenylsulfonyl)-1H-indol-4-yl]ethyl}amine]
- inhibition at 1 µM [2]: 61%

Structure (SMILES): CCNCCc1cccc2[nH]cc(S(=O)(=O)c3cccc(F)c3)c12 [Example 64, N-ethyl-N-{2-[3-(3-fluorophenylsulfonyl)-1H-indol-4-yl]ethyl}amine]
- inhibition at 1 µM [2]: 57%

Structure (SMILES): CCCNCCc1cccc2[nH]cc(S(=O)(=O)c3cccc(F)c3)c12 [Example 65, N-{2-[3-(3-fluorophenylsulfonyl)-1H-indol-4-yl]ethyl}-N-propylamine]
- inhibition at 1 µM [2]: 67%

Structure (SMILES): CC(C)NCCc1cccc2[nH]cc(S(=O)(=O)c3cccc(F)c3)c12 [Example 66, N-{2-[3-(3-fluorophenylsulfonyl)-1H-indol-4-yl]ethyl}propan-2-amine]
- inhibition at 1 µM [2]: 58%

Structure (SMILES): O=S(=O)(c1cccc(F)c1)c1c[nH]c2cccc(CCNC3CC3)c12 [Example 67, N-{2-[3-(3-fluorophenylsulfonyl)-1H-indol-4-yl]ethyl}cyclopropanamine]
- inhibition at 1 µM [2]: 77%

Structure (SMILES): O=S(=O)(c1cccc(F)c1)c1c[nH]c2cccc(CCNC3CCC3)c12 [Example 68, N-{2-[3-(3-fluorophenylsulfonyl)-1H-indol-4-yl]ethyl}cyclobutanamine]
- Ki [1]: 23.5 nM

Structure (SMILES): O=S(=O)(c1cccc(F)c1)c1c[nH]c2cccc(CCNC3CCCC3)c12 [Example 69, N-{2-[3-(3-fluorophenylsulfonyl)-1H-indol-4-yl]ethyl}cyclopentanamine]
- Ki [1]: 78 nM

Structure (SMILES): O=S(=O)(c1cccc(F)c1)c1c[nH]c2cccc(CCNC3CCCCC3)c12 [Example 70, N-{2-[3-(3-fluorophenylsulfonyl)-1H-indol-4-yl]ethyl}cyclohexanamine]
- Ki [1]: 180 nM

Structure (SMILES): CCN(C)CCc1cccc2[nH]cc(S(=O)(=O)c3cccc(F)c3)c12 [Example 71, N-ethyl-N-methyl-N-{2-[3-(3-fluorophenylsulfonyl)-1H-indol-4-yl]ethyl}amine]
- Ki [1]: 116 nM

Structure (SMILES): CN(CCc1cccc2[nH]cc(S(=O)(=O)c3cccc(F)c3)c12)C1CCCCC1 [Example 72, N-cyclohexyl-N-methyl-N-{2-[3-(3-fluorophenylsulfonyl)-1H-indol-4-yl]ethyl}amine]
- inhibition at 1 µM [2]: 66%

Structure (SMILES): CCN(CC)CCc1cccc2[nH]cc(S(=O)(=O)c3cccc(F)c3)c12 [Example 73, N,N-diethyl-N-{2-[3-(3-fluorophenylsulfonyl)-1H-indol-4-yl]ethyl}amine]
- inhibition at 1 µM [2]: 78%

Structure (SMILES): O=S(=O)(c1cccc(F)c1)c1c[nH]c2cccc(CCN3CCCC3)c12 [Example 74, 3-(3-fluorophenylsulfonyl)-4-(2-pyrrolidin-1-ylethyl)-1H-indole]
- Ki [1]: 72 nM

Structure (SMILES): O=S(=O)(c1cccc(F)c1)c1c[nH]c2cccc(CCN3CCCCC3)c12 [Example 75, 3-(3-fluorophenylsulfonyl)-4-(2-piperidin-1-ylethyl)-1H-indole]
- inhibition at 1 µM [2]: 69%

Structure (SMILES): O=S(=O)(c1cccc(F)c1)c1c[nH]c2cccc(CCN3CCOCC3)c12 [Example 76, 4-(2-morpholin-4-ylethyl)-3-(3-fluorophenylsulfonyl)-1H-indole]
- inhibition at 1 µM [2]: 62%

Structure (SMILES): CC(C)CNCCc1cccc2[nH]cc(S(=O)(=O)c3cccc(F)c3)c12 [Example 77, N-isobutyl-N-{2-[3-(3-fluorophenylsulfonyl)-1H-indol-4-yl]ethyl}amine]
- Ki [1]: 14 nM

Structure (SMILES): CCC(CC)NCCc1cccc2[nH]cc(S(=O)(=O)c3cccc(F)c3)c12 [Example 78, (1-Ethyl-propyl)-{2-[3-(3-fluorophenylsulfonyl)-1H-indol-4-yl]-ethyl}-amine]
- Ki [1]: 80 nM
